# Experimental data reported in the Deep4Chem optical property database.
# Assay: photoluminescence quantum yield (fraction); solvent given as SMILES
smiles,measurement,setting,value
Brc1ccc(-c2nc(-c3ccc(C#Cc4ccc(-n5c6ccccc6c6ccccc65)cc4)cc3)nc(-c3ccc(C#Cc4ccc(-n5c6ccccc6c6ccccc65)cc4)cc3)n2)cc1,photoluminescence quantum yield,in C1CCOC1,0.68
same,photoluminescence quantum yield,in CC#N,0.02
same,photoluminescence quantum yield,in CCCCCC,0.9
same,photoluminescence quantum yield,in Cc1ccccc1,0.96
same,photoluminescence quantum yield,in ClCCl,0.65
CCn1c2ccc(/C=C/c3ccc4c(c3)c3cc(-c5nc6ccccc6s5)ccc3n4CC)cc2c2cc(-c3nc4ccccc4s3)ccc21,photoluminescence quantum yield,in C1CCOC1,0.65
same,photoluminescence quantum yield,in CC#N,0.26
same,photoluminescence quantum yield,in CCOC(C)=O,0.58
same,photoluminescence quantum yield,in CN(C)C=O,0.32
same,photoluminescence quantum yield,in ClCCl,0.5
COc1ccc(-c2c3ccc(=[N+]4CCCCC4)cc-3oc3cc(N4CCCCC4)ccc23)cc1,photoluminescence quantum yield,in CCO,0.31
same,photoluminescence quantum yield,in ClCCl,0.91
CCCCc1ccc2ccc3c(CCCC)cc(CCCC)c4ccc1c2c34,photoluminescence quantum yield,in CCCCCC,0.49
same,photoluminescence quantum yield,in CO,0.6
same,photoluminescence quantum yield,in ClCCl,0.43
COc1ccc2cc(/C=C/C3=CC(c4ccccc4)=[O+][B-](F)(F)O3)ccc2c1,photoluminescence quantum yield,in ClCCl,0.43
Brc1ccc(-c2nc3sc4ccccc4c3s2)cc1,photoluminescence quantum yield,in CS(C)=O,0.88
COC(=O)c1[nH]c(-c2ccc(OC)cc2)c2nnc3ccc(OC)cc3c12,photoluminescence quantum yield,in ClCCl,0.282
CCn1c2ccccc2sc2c(C#N)c3oc4ccccc4oc3c(C#N)c21,photoluminescence quantum yield,in ClC(Cl)Cl,0.23
CCCCCCc1ccc(-n2c3c4cccc(OC)c4nc(-c4ccc(C#N)cc4)c3c3c2c2c(-c4ccc(C#N)cc4)nc4c(OC)cccc4c2n3-c2ccc(CCCCCC)cc2)cc1,photoluminescence quantum yield,in ClC(Cl)Cl,0.13
CCCCc1ccc(-n2c3c4cc(F)ccc4nnc3c3c2c2nnc4ccc(F)cc4c2n3-c2ccc(CCCC)cc2)cc1,photoluminescence quantum yield,in Cc1ccccc1,0
CC(=O)c1ccn2c3c(c(/C=C/c4cc[n+](C)cc4)c2c1)CN(C)C3=O,photoluminescence quantum yield,in O,0.041
CC(C)CCCN1c2ccccc2CCc2ccccc21,photoluminescence quantum yield,in CC#N,0.029
same,photoluminescence quantum yield,in CO,0.021
C(=C\c1cc2ccccc2c2ccccc12)/c1c2ccccc2cc2ccccc12,photoluminescence quantum yield,in C1CCOC1,0.56
COc1ccc(/C=C2\OC(=O)c3cc(N)ccc32)cc1,photoluminescence quantum yield,in CC#N,0.38
same,photoluminescence quantum yield,in CC(C)=O,0.21
same,photoluminescence quantum yield,in CC(C)CO,0.44
same,photoluminescence quantum yield,in CC(C)O,0.4
same,photoluminescence quantum yield,in CCCO,0.46
same,photoluminescence quantum yield,in CCO,0.34
same,photoluminescence quantum yield,in CCOC(C)=O,0.2
same,photoluminescence quantum yield,in CCOCC,0.11
same,photoluminescence quantum yield,in CO,0.29
CC1=CC(C)=[N+]2C1=Cc1c(C)c(C3=C(C)C4=Cc5c(C)cc(C)n5[B-](F)(F)[N+]4=C3C)c(C)n1[B-]2(F)F,photoluminescence quantum yield,in ClCCl,0.66
CCC1=C(C)C2=C(c3cc(C(=O)Cl)cc(C4=C5C(C)=C(CC)C(C)=[N+]5[B-](F)(F)n5c(C)c(CC)c(C)c54)c3)c3c(C)c(CC)c(C)n3[B-](F)(F)[N+]2=C1C,photoluminescence quantum yield,in C1CCOC1,0.87
same,photoluminescence quantum yield,in CC#N,0.41
same,photoluminescence quantum yield,in CN(C)C=O,0.61
same,photoluminescence quantum yield,in Cc1ccccc1,0.83
same,photoluminescence quantum yield,in ClC(Cl)Cl,0.7
Cc1cccc(-c2cccc(C)c2)c1,photoluminescence quantum yield,in C1CCCCC1,0.28
N#Cc1ccc(/C=C/c2ncc(-c3ccccc3)o2)cc1,photoluminescence quantum yield,in ClCCl,0.65
CCOC(=O)c1ccc(C2=C(c3ccccc3)c3oc4ccccc4[n+]3[B-](F)(F)O2)cc1,photoluminescence quantum yield,in C1CCOC1,0.011
C1=Cc2ccc(N(c3ccccc3)c3ccccc3)cc2C2(c3cc(N(c4ccccc4)c4ccccc4)ccc31)c1ccccc1-c1ccccc12,photoluminescence quantum yield,in ClCCl,0.9
O=Cc1ccc(-c2cccc(-c3nc4ccccc4s3)c2O)o1,photoluminescence quantum yield,in CCO,0.0846
same,photoluminescence quantum yield,in ClCCl,0.111
same,photoluminescence quantum yield,in O,0.01
CCOC(=O)C(C(=O)OCC)C1=[N+]2C(=C(c3ccc(C)cc3)c3ccc(Cl)n3[B-]2(F)F)C=C1,photoluminescence quantum yield,in C1CCCCC1,0.46
same,photoluminescence quantum yield,in C1CCOC1,0.48
same,photoluminescence quantum yield,in CCOC(C)=O,0.4
same,photoluminescence quantum yield,in CO,0.28
same,photoluminescence quantum yield,in Cc1ccccc1,0.79
same,photoluminescence quantum yield,in ClC(Cl)Cl,0.52
CC(C)CN1C(=O)/C(=C/c2ccc(C#N)cc2)C=C1c1ccccc1,photoluminescence quantum yield,in C1COCCO1,0.153
CCC1(CC)c2ccccc2-c2c1c1c(c3c2C(CC)(CC)c2cc(/C=C/c4cccs4)ccc2-3)C(CC)(CC)c2cc(/C=C/c3cccs3)ccc2-1,photoluminescence quantum yield,in C1CCOC1,0.16
Cc1cc(C2=C(c3cc(C)sc3C)P(=O)(c3ccccc3)c3ccccc32)c(C)s1 (stereo not drawn),photoluminescence quantum yield,in C1CCOC1,0.03
CC(C)(C)c1ccc2oc3nc4oc5cc(-n6c7ccccc7c7ccccc76)ccc5c4cc3c2c1,photoluminescence quantum yield,in ClC(Cl)Cl,0.714
COc1ccc(-c2csc(/C(C#N)=C/c3ccncc3)n2)cc1,photoluminescence quantum yield,in CC#N,0.04
same,photoluminescence quantum yield,in CCO,0.002
same,photoluminescence quantum yield,in CN(C)C=O,0.016
same,photoluminescence quantum yield,in CS(C)=O,0.038
same,photoluminescence quantum yield,in Cc1ccccc1,0.285
same,photoluminescence quantum yield,in ClCCl,0.129
